# Experimental data published in article PMC9971101, “Comparison of Five Near-Infrared Fluorescent Folate Conjugates in an Ovarian Cancer Model” (Molecular Imaging and Biology, 2021).
# Assays:
# [1] = Fluorescence spectroscopy (excitation and emission spectra); type: physicochemical
# Description: The spectral characteristics of the conjugates 1–5 were determined using a Spark 20M plate reader (Tecan, Switzerland). The emission and excitation of all conjugates were measured in triplicates with a bandwidth of 5 nm in a 96-well Half-Area Microplate at a concentration of 100 μM dissolved in phosphate buffered saline (PBS). The fluorescence intensity was plotted as normalised relative fluorescence units (RFU).
# Using conjugates 1–5, we evaluated how the conjugation of the different fluorophores to EDAF (Fig. 1a) affected the optical properties. To do so, we defined their individual excitation and emission spectra, and determined the optimal FLI parameters. The different conjugates (Fig. 1b) were diluted in medium or in DMSO and the peak excitation and emission obtained are reported in Table 1, Fig. 1c and Fig. S17.
# [2] = test system: Skov-3 subcutaneous xenografts; assay: In vivo biodistribution and optimal time point FLI in subcutaneous Skov-3 xenograft model (IVIS Spectrum); design: species or system NOD-scid IL2Rg^null mice; settings: for tumour to background ratio (TBR): mean ± SD; for excretion route: mice
# Description: (§1) All applicable institutional and/or national guidelines for the care and use of animals were followed. All experiments were approved by The Norwegian Animal Research Authority and conducted according to The European Convention for the Protection of Vertebrates Used for Scientific Purposes (Application ID 14128). NOD-scid IL2Rg^null mice (referred to as NSG) were housed in groups of ≤ 5 in individually ventilated cages changed twice per month and kept in a 12-h […] schedule at 21 °C at the Vivarium, University of Bergen. Observations for general condition and body weights were recorded twice per week and, when indicated, the animals were euthanised according to institutional guidelines. Skov-3 and A549 subcutaneous xenografts were established through bi-lateral flank injections of 5 × 10^6 cells, resuspended in 100 μL PBS containing 16.7% Matrigel (Corning Inc., MA, USA). Tumour volumes were measured weekly with a digital calliper and calculated using the ellipsoid volume formula: Volume = π (length × width × height)/6.
# For biodistribution assessment of conjugates 1–5, mice were intravenously (iv) injected with 100 μL of a 10-μM conjugate solution when mean tumour volumes reached ≈150 mm^3, corresponding to a dose of […]. The dose was chosen on the basis of preclinical mouse models previously performed using folate-NIR (OTL38) FLI [28]. To determine the timepoint for the optimal TBR, optical imaging was performed at 0 h, 0.5 h, 1 h, 2 h, 4 h, 6 h, 8 h, 24 h and 48 h using the IVIS Spectrum. Fluorescence signals were analysed with the Living Imaging® software v4.5 (PerkinElmer Inc.) and expressed as average radiance (p/s/cm^2/sr). Regions of interest (ROI) were manually drawn around the subcutaneous tumours in the flanks and the adjacent tissue to calculate TBRs at all time points. Next, subcutaneous xenograft models were imaged at the pre-determined optimal time points, which were 4 h for conjugates 1, 2 and 3 and 24 h for conjugates 4 and 5.
# [3] = test system: Skov-3 and A549 subcutaneous xenografts; assay: Ex vivo tumour and organ biodistribution (IVIS Spectrum and FLARE intraoperative system); type: in vivo, NOD-scid IL2Rg^null mice; settings: for ex vivo fluorescence signal in tumours (FLARE): Skov-3 tumour; for ex vivo fluorescence in the kidneys (FLARE): exposure time 1000 ms
# Description: as §1
# Organ biodistribution was assessed ex vivo for each conjugate in Skov-3 and in the control cell line, A549. Four hours after iv administration of 1, 2 and 3 and 24 h after injection of 4 and 5 (100 μl, 10 μM), mice were euthanised and tumours and organs were harvested. FLI was performed with the IVIS Spectrum, and subsequently, fluorescence was acquired using the FLARE® intraoperative system (Curadel LLC), employing the NIR channel #2 (λex = 760 ± 3 nm and λem = > 781 nm longpass) at three different exposure times (500, 1000 and 2000 ms) at a gain of 1. IVIS Spectrum data were analysed as previously described, and FLARE data were analysed using ImageJ (Fiji, version 1.52p, [29]) and the integrated FLARE analysis platform using grey scale values expressed in arbitrary units (AU).
# [4] = test system: Skov-3 and A549 subcutaneous xenografts; assay: In vivo FLI at optimal time points, Skov-3 versus A549 xenografts (target specificity); design: species or system NOD-scid IL2Rg^null mice; settings: 4 h after iv injection, p < 0.05
# Description: as §1, with “Skov-3 and A549 subcutaneous xenografts were established through bi-lateral flank injections of 5 × 10^6 cells, resuspended in 100 μL PBS containing 16.7% Matrigel (Corning Inc., MA, USA).” left out
# For biodistribution assessment of conjugates 1–5, mice were intravenously (iv) injected with 100 μL of a 10-μM conjugate solution when mean tumour volumes reached ≈150 mm^3, corresponding to a dose of 500 nmol/mouse. […] Fluorescence signals were analysed with the Living Imaging® software v4.5 (PerkinElmer Inc.) and expressed as average radiance (p/s/cm^2/sr). […] Next, subcutaneous xenograft models were imaged at the pre-determined optimal time points, which were 4 h for conjugates 1, 2 and 3 and 24 h for conjugates 4 and 5.
# [5] = 4 h after iv injection, Skov-3 subcutaneous xenograft
# [6] = 8 h after iv injection, Skov-3 subcutaneous xenograft
# [7] = 4 h after iv injection, exposure time 2000 ms
# [8] = 24 h after iv injection, Skov-3 subcutaneous xenograft
# [9] = 24 h after iv injection, exposure time 2000 ms
# [10] = Skov-3 xenografted mice, 24 h after iv injection
Compound,Stokes shift ([1]; DMSO) [nm],λem ([1]; DMSO) [nm],λex ([1]; DMSO) [nm],Stokes shift ([1]; culture medium) [nm],λem ([1]; culture medium) [nm],λex ([1]; culture medium) [nm],"tumour to background ratio (TBR) [2, 5]","tumour to background ratio (TBR) [2, 6]",residual fluorescence in healthy organs in vivo ([2]; 24 h after iv injection),excretion route ([2]; iv injection),"ex vivo fluorescence signal in tumours (FLARE) [3, 7] [AU]","tumour to background ratio (TBR) [2, 8]",ex vivo organ accumulation (IVIS Spectrum) ([3]; 24 h after iv injection),"ex vivo fluorescence signal in tumours (FLARE) [3, 9] [AU]","ex vivo fluorescence in the kidneys (FLARE) [3, 10] [AU]",other results
"CC1(C)C(/C=C/C2=C(Oc3ccc(CCC(=O)NCCNC(=O)CC[C@H](NC(=O)c4ccc(NCc5cnc6nc(N)[nH]c(=O)c6n5)cc4)C(=O)O)cc3)C(=C/C=C3/N(CCC[N+](C)(C)C)c4ccc(S(=O)(=O)O)cc4C3(C)C)/CCC2)=[N+](CCC[N+](C)(C)C)c2ccc(S(=O)(=O)O)cc21 [Conjugate 1, 2-((E)-2-((E)-2-(4-(3-((2-((S)-4-(4-(((2-amino-4-oxo-3,4-dihydropteridin-6-yl)methyl)amino)benzamido)-4-carboxybutanamido)ethyl)amino)-3-oxopropyl)phenoxy)-3-(2-((E)-3,3-dimethyl-5-sulfonato-1-(3-(trimethylammonio)propyl)indolin-2-ylidene)ethylidene)cyclohex-1-en-1-yl)vinyl)-3,3-dimethyl-1-(3-(trimethylammonio)propyl)-3H-indol-1-ium-5-sulfonate]",24,816,792,25,802,777,1.9 ± 0.3,2.0 ± 0.4,residual fluorescence signal in the kidneys,renally cleared,156.9 ± 22.0,–,–,–,–,–
"CC1(C)C(/C=C/C2=C(c3ccc(CCC(=O)NCCNC(=O)CC[C@H](NC(=O)c4ccc(NCc5cnc6nc(N)[nH]c(=O)c6n5)cc4)C(=O)O)cc3)C(=C/C=C3/N(CCC[N+](C)(C)C)c4ccc(S(=O)(=O)O)cc4C3(C)C)/CCC2)=[N+](CCC[N+](C)(C)C)c2ccc(S(=O)(=O)O)cc21 [Conjugate 2, 2-((E)-2-((E)-4'-(3-((2-((S)-4-(4-(((2-amino-4-oxo-3,4-dihydropteridin-6-yl)methyl)amino)benzamido)-4-carboxybutanamido)ethyl)amino)-3-oxopropyl)-6-(2-((E)-3,3-dimethyl-5-sulfonato-1-(3-(trimethylammonio)propyl)indolin-2-ylidene)ethylidene)-3,4,5,6-tetrahydro-[1,1'-biphenyl]-2-yl)vinyl)-3,3-dimethyl-1-(3-(trimethylammonio)propyl)-3H-indol-1-ium-5-sulfonate]",28,802,774,28,788,760,1.8 ± 0.2,2.0 ± 0.2,–,renally cleared,213.1 ± 51.0,–,–,–,–,"time that the fluorescence signal in Skov-3 tumours was sustained ([2]; after iv injection, last imaging time point 48 h): up to 48 h; difference in average radiance between Skov-3 and A549 tumours [4]: significant difference"
"CC1(C)C(/C=C/C2=C(Oc3ccc(S(=O)(=O)O)cc3)C(=C/C=C3/N(CCCCS(=O)(=O)O)c4ccc(S(=O)(=O)[O-])cc4C3(C)C)/CCC2)=[N+](CCCCCC(=O)NCCNC(=O)CC[C@H](NC(=O)c2ccc(NCc3cnc4nc(N)[nH]c(=O)c4n3)cc2)C(=O)O)c2ccc(S(=O)(=O)O)cc21 [Conjugate 3, 1-(6-((2-((S)-4-(4-(((2-amino-4-oxo-3,4-dihydropteridin-6-yl)methyl)amino)benzamido)-4-carboxybutanamido)ethyl)amino)-6-oxohexyl)-2-((E)-2-((E)-3-(2-((E)-3,3-dimethyl-5-sulfonato-1-(4-sulfonatobutyl)indolin-2-ylidene)ethylidene)-2-(4-sulfonatophenoxy)cyclohex-1-en-1-yl)vinyl)-3,3-dimethyl-3H-indol-1-ium-5-sulfonate]",28,826,798,25,808,783,1.2 ± 0.2,1.4 ± 0.3,residual fluorescence signal in the kidneys,renally cleared,189.7 ± 27.1,–,–,–,–,"ex vivo fluorescence in the kidneys (FLARE) ([3]; Skov-3 xenografted mice, 4 h after iv injection): 913.6 ± 248.9 AU"
"CC1(C)C(/C=C/C=C/C=C/C=C2\N(CCCCCC(=O)NCCNC(=O)CC[C@H](NC(=O)c3ccc(NCc4cnc5nc(N)[nH]c(=O)c5n4)cc3)C(=O)O)c3ccc4ccccc4c3C2(C)C)=[N+](CCCCS(=O)(=O)[O-])c2ccc3ccccc3c21 [Conjugate 4, 4-(2-((1E,3E,5E,7Z)-7-(3-(6-((2-((S)-4-(4-(((2-amino-4-oxo-3,4-dihydropteridin-6-yl)methyl)amino)benzamido)-4-carboxybutanamido)ethyl)amino)-6-oxohexyl)-1,1-dimethyl-1,3-dihydro-2H-benzo[e]indol-2-ylidene)hepta-1,3,5-trien-1-yl)-1,1-dimethyl-1H-benzo[e]indol-3-ium-3-yl)butane-1-sulfonate]",42,832,790,36,820,784,–,–,–,hepatobiliary excretion,–,1.0 ± 0.1,mainly in the liver,56.4 ± 4.1,100.4 ± 37.8,"tumour to background ratio (TBR) ([2]; 0.5 h after iv injection, Skov-3 subcutaneous xenograft): 1.3 ± 0.3; accumulation in tumours ([2]; Skov-3 subcutaneous xenograft, iv injection): no accumulation in tumours; ex vivo fluorescence intensity in the liver (FLARE) ([3]; Skov-3 xenografted mice, 24 h after iv injection, exposure time 2000 ms): 283.3 ± 38.7 AU"
"C[N+]1=C(/C=C/C2=C(Cl)C(=C/C=C3/N(CCCCCC(=O)NCCNC(=O)CC[C@H](NC(=O)c4ccc(NCc5cnc6nc(N)[nH]c(=O)c6n5)cc4)C(=O)O)c4ccccc4C3(C)C)/CCC2)C(C)(C)c2ccccc21 [Conjugate 5, 2-((E)-2-((E)-3-(2-((E)-1-(6-((2-((S)-4-(4-(((2-amino-4-oxo-3,4-dihydropteridin-6-yl)methyl)amino)benzamido)-4-carboxybutanamido)ethyl)amino)-6-oxohexyl)-3,3-dimethylindolin-2-ylidene)ethylidene)-2-chlorocyclohex-1-en-1-yl)vinyl)-1,3,3-trimethyl-3H-indol-1-ium]",24,820,796,15,804,789,–,–,–,hepatobiliary excretion,–,2.1 ± 0.6,in the stomach,60.9 ± 6.3,63.9 ± 11.3,"time at which tumour fluorescence became evident ([2]; post-injection, Skov-3 subcutaneous xenograft): 4 h"
